Assay results from PubChem BioAssay AID1259407 (Chemical Carcinogenesis Research Information System (CCRIS), 2018).
Activity calls are given as the source filed them. No rule for the calls is given here.

Test system: CCRIS mutagenicity, Ames/micronucleus/aberration tests
Experiment: CCRIS mutagenicity studies

For CC=O, the mutagenic call (End Point: In vitro chromosomal aberrations, Test System: Chinese hamster lung (CHL/IU) cells, Metabolic Activation: None) was “active; positive (structural changes)”, the mutagenic call (End Point: In vitro chromosomal aberrations, Test System: Chinese hamster lung (CHL/IU) cells, Metabolic Activation: Rat, Liver, S9, Phenobarbital and 5,6-benzoflavone) was “active; positive (structural changes)” and the mutagenic call (End Point: In vivo micronucleus, Test System: Peripheral blood reticulocytes, Species: Mouse, Strain/Sex: Aldh2+/+ aldehyde dehydrogenase-2 sufficient /male, Route: Inhalation) was “inactive; negative”. The mutagenic call (End Point: In vivo micronucleus, Test System: Peripheral blood reticulocytes, Species: Mouse, Strain/Sex: Aldh2+/+ aldehyde dehydrogenase-2 sufficient /male, Route: Oral) was “inactive; negative”, the mutagenic call (End Point: In vivo micronucleus, Test System: Peripheral blood reticulocytes, Species: Mouse, Strain/Sex: Aldh2-/- aldehyde dehydrogenase-2 null /male, Route: Inhalation) was “active; positive” and the mutagenic call (End Point: In vivo micronucleus, Test System: Peripheral blood reticulocytes, Species: Mouse, Strain/Sex: Aldh2-/- aldehyde dehydrogenase-2 null /male, Route: Oral) was “active; positive”. The mutagenic call (Test System: AMES SALMONELLA TYPHIMURIUM, Strain/Indicator: TA98, Metabolic Activation: HAMSTER, LIVER, S-9, AROCLOR 1254, Method: STANDARD PLATE) was “inactive; negative”, the mutagenic call (Test System: AMES SALMONELLA TYPHIMURIUM, Strain/Indicator: TA98, Metabolic Activation: NONE, Method: GAS EXPOSURE) was “inactive; negative” and the mutagenic call (Test System: AMES SALMONELLA TYPHIMURIUM, Strain/Indicator: TA98, Metabolic Activation: NONE, Method: PREINCUBATION) was “inactive; negative”. For the same molecule, the mutagenic call (Test System: AMES SALMONELLA TYPHIMURIUM, Strain/Indicator: TA98, Metabolic Activation: NONE, Method: STANDARD PLATE) was “inactive; negative”, the mutagenic call (Test System: AMES SALMONELLA TYPHIMURIUM, Strain/Indicator: TA98, Metabolic Activation: RAT LIVER S-9, PHENOBARBITAL AND BETA-NAPHTHOFLAVONE, Method: PREINCUBATION) was “inactive; negative” and the mutagenic call (Test System: AMES SALMONELLA TYPHIMURIUM, Strain/Indicator: TA98, Metabolic Activation: RAT, LIVER, S-9, AROCLOR 1254, Method: PREINCUBATION) was “inactive; negative”. For the same molecule, the mutagenic call (Test System: AMES SALMONELLA TYPHIMURIUM, Strain/Indicator: TA98, Metabolic Activation: RAT, LIVER, S-9, AROCLOR 1254, Method: STANDARD PLATE) was “inactive; negative”, the mutagenic call (Test System: AMES SALMONELLA TYPHIMURIUM, Strain/Indicator: TA98, Metabolic Activation: RAT, LIVER, S-9, PHENOBARBITAL AND BETA-NAPHTHOFLAVONE, Method: GAS EXPOSURE) was “inactive; negative” and the mutagenic call (Test System: AMES SALMONELLA TYPHIMURIUM, Strain/Indicator: TA100, Metabolic Activation: HAMSTER, LIVER, S-9, AROCLOR 1254, Method: STANDARD PLATE) was “inactive; negative”. For the same molecule, the mutagenic call (Test System: AMES SALMONELLA TYPHIMURIUM, Strain/Indicator: TA100, Metabolic Activation: MOUSE LIVER S-9, AROCLOR 1254, Method: VAPOR PHASE) was “inactive; negative”, the mutagenic call (Test System: AMES SALMONELLA TYPHIMURIUM, Strain/Indicator: TA100, Metabolic Activation: NONE, Method: GAS EXPOSURE) was “inactive; negative” and the mutagenic call (Test System: AMES SALMONELLA TYPHIMURIUM, Strain/Indicator: TA100, Metabolic Activation: NONE, Method: PREINCUBATION) was “inactive; negative”. For the same molecule, the mutagenic call (Test System: AMES SALMONELLA TYPHIMURIUM, Strain/Indicator: TA100, Metabolic Activation: NONE, Method: STANDARD PLATE) was “inactive; negative”, the mutagenic call (Test System: AMES SALMONELLA TYPHIMURIUM, Strain/Indicator: TA100, Metabolic Activation: NONE, Method: VAPOR PHASE) was “inactive; negative” and the mutagenic call (Test System: AMES SALMONELLA TYPHIMURIUM, Strain/Indicator: TA100, Metabolic Activation: RAT LIVER S-9, AROCLOR 1254, Method: VAPOR PHASE) was “inactive; negative”. For the same molecule, the mutagenic call (Test System: AMES SALMONELLA TYPHIMURIUM, Strain/Indicator: TA100, Metabolic Activation: RAT LIVER S-9, PHENOBARBITAL AND BETA-NAPHTHOFLAVONE, Method: PREINCUBATION) was “inactive; negative”, the mutagenic call (Test System: AMES SALMONELLA TYPHIMURIUM, Strain/Indicator: TA100, Metabolic Activation: RAT, LIVER, S-9, AROCLOR 1254, Method: PREINCUBATION) was “inactive; negative” and the mutagenic call (Test System: AMES SALMONELLA TYPHIMURIUM, Strain/Indicator: TA100, Metabolic Activation: RAT, LIVER, S-9, AROCLOR 1254, Method: STANDARD PLATE) was “inactive; negative”. The mutagenic call (Test System: AMES SALMONELLA TYPHIMURIUM, Strain/Indicator: TA100, Metabolic Activation: RAT, LIVER, S-9, PHENOBARBITAL AND BETA-NAPHTHOFLAVONE, Method: GAS EXPOSURE) was “inactive; negative”, the mutagenic call (Test System: AMES SALMONELLA TYPHIMURIUM, Strain/Indicator: TA102, Metabolic Activation: MOUSE LIVER S-9, AROCLOR 1254, Method: VAPOR PHASE) was “inactive; negative” and the mutagenic call (Test System: AMES SALMONELLA TYPHIMURIUM, Strain/Indicator: TA102, Metabolic Activation: NONE, Method: PREINCUBATION) was “inactive; negative”. The mutagenic call (Test System: AMES SALMONELLA TYPHIMURIUM, Strain/Indicator: TA102, Metabolic Activation: NONE, Method: VAPOR PHASE) was “inactive; negative”, the mutagenic call (Test System: AMES SALMONELLA TYPHIMURIUM, Strain/Indicator: TA102, Metabolic Activation: RAT, LIVER, S-9, AROCLOR 1254, Method: PREINCUBATION) was “inactive; negative” and the mutagenic call (Test System: AMES SALMONELLA TYPHIMURIUM, Strain/Indicator: TA104, Metabolic Activation: MOUSE LIVER S-9, AROCLOR 1254, Method: VAPOR PHASE) was “inactive; negative”. For the same molecule, the mutagenic call (Test System: AMES SALMONELLA TYPHIMURIUM, Strain/Indicator: TA104, Metabolic Activation: NONE, Method: VAPOR PHASE) was “inactive; negative”, the mutagenic call (Test System: AMES SALMONELLA TYPHIMURIUM, Strain/Indicator: TA104, Metabolic Activation: RAT LIVER S-9, AROCLOR 1254, Method: VAPOR PHASE) was “inactive; negative” and the mutagenic call (Test System: AMES SALMONELLA TYPHIMURIUM, Strain/Indicator: TA1535, Metabolic Activation: HAMSTER, LIVER, S-9, AROCLOR 1254, Method: STANDARD PLATE) was “inactive; negative”. For the same molecule, the mutagenic call (Test System: AMES SALMONELLA TYPHIMURIUM, Strain/Indicator: TA1535, Metabolic Activation: NONE, Method: GAS EXPOSURE) was “inactive; negative”, the mutagenic call (Test System: AMES SALMONELLA TYPHIMURIUM, Strain/Indicator: TA1535, Metabolic Activation: NONE, Method: PREINCUBATION) was “inactive; negative” and the mutagenic call (Test System: AMES SALMONELLA TYPHIMURIUM, Strain/Indicator: TA1535, Metabolic Activation: NONE, Method: STANDARD PLATE) was “inactive; negative”. The mutagenic call (Test System: AMES SALMONELLA TYPHIMURIUM, Strain/Indicator: TA1535, Metabolic Activation: RAT LIVER S-9, PHENOBARBITAL AND BETA-NAPHTHOFLAVONE, Method: PREINCUBATION) was “inactive; negative”, the mutagenic call (Test System: AMES SALMONELLA TYPHIMURIUM, Strain/Indicator: TA1535, Metabolic Activation: RAT, LIVER, S-9, AROCLOR 1254, Method: STANDARD PLATE) was “inactive; negative” and the mutagenic call (Test System: AMES SALMONELLA TYPHIMURIUM, Strain/Indicator: TA1535, Metabolic Activation: RAT, LIVER, S-9, PHENOBARBITAL AND BETA-NAPHTHOFLAVONE, Method: GAS EXPOSURE) was “inactive; negative”. The mutagenic call (Test System: AMES SALMONELLA TYPHIMURIUM, Strain/Indicator: TA1537, Metabolic Activation: HAMSTER, LIVER, S-9, AROCLOR 1254, Method: STANDARD PLATE) was “inactive; negative”, the mutagenic call (Test System: AMES SALMONELLA TYPHIMURIUM, Strain/Indicator: TA1537, Metabolic Activation: NONE, Method: GAS EXPOSURE) was “inactive; negative” and the mutagenic call (Test System: AMES SALMONELLA TYPHIMURIUM, Strain/Indicator: TA1537, Metabolic Activation: NONE, Method: PREINCUBATION) was “inactive; negative”. The mutagenic call (Test System: AMES SALMONELLA TYPHIMURIUM, Strain/Indicator: TA1537, Metabolic Activation: NONE, Method: STANDARD PLATE) was “inactive; negative”, the mutagenic call (Test System: AMES SALMONELLA TYPHIMURIUM, Strain/Indicator: TA1537, Metabolic Activation: RAT LIVER S-9, PHENOBARBITAL AND BETA-NAPHTHOFLAVONE, Method: PREINCUBATION) was “inactive; negative” and the mutagenic call (Test System: AMES SALMONELLA TYPHIMURIUM, Strain/Indicator: TA1537, Metabolic Activation: RAT, LIVER, S-9, AROCLOR 1254, Method: STANDARD PLATE) was “inactive; negative”. The mutagenic call (Test System: AMES SALMONELLA TYPHIMURIUM, Strain/Indicator: TA1537, Metabolic Activation: RAT, LIVER, S-9, PHENOBARBITAL AND BETA-NAPHTHOFLAVONE, Method: GAS EXPOSURE) was “inactive; negative”, the mutagenic call (Test System: AMES SALMONELLA TYPHIMURIUM, Strain/Indicator: TA1538, Metabolic Activation: HAMSTER, LIVER, S-9, AROCLOR 1254, Method: STANDARD PLATE) was “inactive; negative” and the mutagenic call (Test System: AMES SALMONELLA TYPHIMURIUM, Strain/Indicator: TA1538, Metabolic Activation: NONE, Method: PREINCUBATION) was “inactive; negative”. The mutagenic call (Test System: AMES SALMONELLA TYPHIMURIUM, Strain/Indicator: TA1538, Metabolic Activation: NONE, Method: STANDARD PLATE) was “inactive; negative”, the mutagenic call (Test System: AMES SALMONELLA TYPHIMURIUM, Strain/Indicator: TA1538, Metabolic Activation: RAT LIVER S-9, PHENOBARBITAL AND BETA-NAPHTHOFLAVONE, Method: PREINCUBATION) was “inactive; negative” and the mutagenic call (Test System: AMES SALMONELLA TYPHIMURIUM, Strain/Indicator: TA1538, Metabolic Activation: RAT, LIVER, S-9, AROCLOR 1254, Method: STANDARD PLATE) was “inactive; negative”. For the same molecule, the mutagenic call (Test System: E. COLI, Strain/Indicator: WP2UVRA, Metabolic Activation: NONE, Method: GAS EXPOSURE) was “inactive; negative”, the mutagenic call (Test System: E. COLI, Strain/Indicator: WP2UVRA, Metabolic Activation: RAT, LIVER, S-9, PHENOBARBITAL AND BETA-NAPHTHOFLAVONE, Method: GAS EXPOSURE) was “inactive; negative” and the mutagenic call (Test System: E.COLI, Strain/Indicator: WP2UVRA, Metabolic Activation: NONE, Method: PREINCUBATION) was “inactive; negative”. The mutagenic call (Test System: E.COLI, Strain/Indicator: WP2UVRA, Metabolic Activation: RAT LIVER S-9, PHENOBARBITAL AND BETA-NAPHTHOFLAVONE, Method: PREINCUBATION) was “inactive; negative”, the mutagenic call (Test System: HUMAN SKIN FIBROBLASTS, Strain/Indicator: 6-THIOGUANINE, Metabolic Activation: NONE) was “active; positive” and the mutagenic call (Test System: MOUSE LYMPHOMA, Strain/Indicator: L5178Y (TK+/TK-), Metabolic Activation: RAT, LIVER, S-9, AROCLOR 1254, Method: SUSPENSION/PLATE) was “active; positive. reevaluation of results: inconclusive”.
